Assay results: patent publication US10167262B2, “Herbicidal substituted 3-arylpyrazoles” (FMC CORPORATION, priority 2014, dated 2019)

Legend:
Assay type in all cases: in vivo
[1] = test system: green foxtail (Setaria viridis); assay: Test E pre-/postemergence greenhouse test, plant response rating 0-100; conditions: Preemergence, scale 0 to 100
[2] = test system: goosegrass (Eleusine indica); assay: as above; conditions: Preemergence, scale 0 to 100
[3] = test system: yellow nutsedge (Cyperus esculentus); assay: as above; conditions: Preemergence, scale 0 to 100
[4] = test system: johnsongrass (Sorghum halepense); assay: as above; conditions: Preemergence, scale 0 to 100
[5] = test system: waterhemp_RES1, (ALS & Triazine resistant common waterhemp, Amaranthus rudis); assay: Test E postemergence greenhouse test, plant response rating 0-100; conditions: scale 0 to 100
Summary of the method: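 Visual ratings, 0 (no effect) to 100 (complete control), made versus controls 14–21 days after postemergence application in the greenhouse. Plants were at 1- to 4-leaf stage (2–18 cm) in peat moss/vermiculite potting medium.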

[6] = test system: morningglory (Ipomoea coccinea); assay: Test E pre-/postemergence greenhouse test, plant response rating 0-100; conditions: Preemergence, scale 0 to 100
[7] = test system: giant foxtail (Setaria faberii); assay: as above; conditions: Preemergence, scale 0 to 100
[8] = test system: windgrass (Apera spica-venti); assay: Test C postemergence greenhouse test, plant response rating 0-100; conditions: for Plant response rating, Windgrass: scale 0 to 100
Summary of the method: (§1)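 Plants rated visually 0 (no effect) to 100 (complete control) against untreated controls after 13 to 15 days in the greenhouse, dash indicating no result. Treatment was a postemergence application of formulated chemicals at the 1- to 4-leaf stage (2 to 18 cm), in pots of peat-vermiculite medium.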

[9] = test system: woolly cupgrass (Eriochloa villosa); assay: as above; conditions: for Plant response rating, Cupgrass, Woolly: scale 0 to 100
Summary of the method: as §1

[10] = test system: canarygrass (Phalaris minor); assay: as above; conditions: for Plant response rating, Canarygrass: scale 0 to 100
Summary of the method: as §1

[11] = test system: surinam grass (Brachiaria decumbens); assay: as above; conditions: for Plant response rating, Surinam Grass: scale 0 to 100
Summary of the method: as §1

[12] = test system: goosegrass (Eleusine indica); assay: as above; conditions: for Plant response rating, Goosegrass: scale 0 to 100
Summary of the method: as §1

[13] = test system: deadnettle (henbit deadnettle, Lamium amplexicaule); assay: as above; conditions: for Plant response rating, Deadnettle: scale 0 to 100
Summary of the method: as §1

[14] = test system: bermudagrass (Cynodon dactylon); assay: as above; conditions: for Plant response rating, Bermudagrass: scale 0 to 100
Summary of the method: as §1

[15] = test system: green foxtail (Setaria viridis); assay: as above; conditions: for Plant response rating, Foxtail, Green: scale 0 to 100
Summary of the method: as §1

[16] = test system: cocklebur (common cocklebur, Xanthium strumarium); assay: as above; conditions: for Plant response rating, Cocklebur: scale 0 to 100
Summary of the method: as §1

[17] = test system: winter barley (Hordeum vulgare); assay: as above; conditions: for Plant response rating, Barley: scale 0 to 100
Summary of the method: as §1

[18] = test system: downy bromegrass (Bromus tectorum); assay: as above; conditions: for Plant response rating, Bromegrass, Downy: scale 0 to 100
Summary of the method: as §1

O=Cn1cc(C(=O)c2ccccc2)c(-c2cc(Cl)cc(Cl)c2)n1 [Compound 28]
90: Plant response rating, Waterhemp_RES1 ([5]; 125 g ai/ha) | Plant response rating, Waterhemp_RES1 ([5]; 500 g ai/ha)
85: Plant response rating, Waterhemp_RES1 ([5]; 31 g ai/ha) | Plant response rating, Waterhemp_RES1 ([5]; 62 g ai/ha)
20: Foxtail, Giant plant response rating ([7]; 125 g ai/ha)
0: Foxtail, Green plant response rating ([1]; 31 g ai/ha) | Foxtail, Green plant response rating ([1]; 62 g ai/ha) | Foxtail, Green plant response rating ([1]; 125 g ai/ha) | Foxtail, Green plant response rating ([1]; 250 g ai/ha) | Foxtail, Green plant response rating ([1]; 500 g ai/ha) | Goosegrass plant response rating ([2]; 31 g ai/ha) | Goosegrass plant response rating ([2]; 62 g ai/ha) | Goosegrass plant response rating ([2]; 125 g ai/ha) | Goosegrass plant response rating ([2]; 250 g ai/ha) | Goosegrass plant response rating ([2]; 500 g ai/ha) | Nutsedge, Yellow plant response rating ([3]; 31 g ai/ha) | Nutsedge, Yellow plant response rating ([3]; 62 g ai/ha) | Nutsedge, Yellow plant response rating ([3]; 125 g ai/ha) | Nutsedge, Yellow plant response rating ([3]; 250 g ai/ha) | Nutsedge, Yellow plant response rating ([3]; 500 g ai/ha) | Johnsongrass plant response rating ([4]; 31 g ai/ha) | Johnsongrass plant response rating ([4]; 62 g ai/ha) | Johnsongrass plant response rating ([4]; 125 g ai/ha) | Johnsongrass plant response rating ([4]; 250 g ai/ha) | Johnsongrass plant response rating ([4]; 500 g ai/ha) | Morningglory plant response rating ([6]; 31 g ai/ha) | Morningglory plant response rating ([6]; 62 g ai/ha) | Morningglory plant response rating ([6]; 125 g ai/ha) | Morningglory plant response rating ([6]; 250 g ai/ha) | Morningglory plant response rating ([6]; 500 g ai/ha) | Foxtail, Giant plant response rating ([7]; 31 g ai/ha) | Foxtail, Giant plant response rating ([7]; 62 g ai/ha) | Foxtail, Giant plant response rating ([7]; 250 g ai/ha) | Foxtail, Giant plant response rating ([7]; 500 g ai/ha)
95: Plant response rating, Waterhemp_RES1 ([5]; 250 g ai/ha)

C#CCn1cc(C(=O)c2ccccc2)c(-c2cc(Cl)cc(Cl)c2)n1 [Compound 39, [3-(3,5-dichlorophenyl)-1-(2-propyn-1-yl)-1H-pyrazol-4-yl]phenylmethanone]
5: Plant response rating, Foxtail, Green ([15]; 500 g ai/ha) | Plant response rating, Bromegrass, Downy ([18]; 500 g ai/ha)
55: Plant response rating (0 to 100), Cocklebur ([16]; 125 g ai/ha) | Plant response rating, Cocklebur ([16]; 250 g ai/ha) | Plant response rating, Cocklebur ([16]; 500 g ai/ha)
85: Plant response rating, Waterhemp_RES1 ([5]; 31 g ai/ha) | Plant response rating, Waterhemp_RES1 ([5]; 62 g ai/ha)
95: Plant response rating, Waterhemp_RES1 ([5]; 500 g ai/ha)
0: Foxtail, Green plant response rating ([1]; 62 g ai/ha) | Foxtail, Green plant response rating ([1]; 125 g ai/ha) | Foxtail, Green plant response rating ([1]; 250 g ai/ha) | Foxtail, Green plant response rating ([1]; 500 g ai/ha) | Goosegrass plant response rating ([2]; 62 g ai/ha) | Goosegrass plant response rating ([2]; 125 g ai/ha) | Goosegrass plant response rating ([2]; 250 g ai/ha) | Goosegrass plant response rating ([2]; 500 g ai/ha) | Nutsedge, Yellow plant response rating ([3]; 62 g ai/ha) | Nutsedge, Yellow plant response rating ([3]; 125 g ai/ha) | Nutsedge, Yellow plant response rating ([3]; 250 g ai/ha) | Nutsedge, Yellow plant response rating ([3]; 500 g ai/ha) | Johnsongrass plant response rating ([4]; 62 g ai/ha) | Johnsongrass plant response rating ([4]; 125 g ai/ha) | Johnsongrass plant response rating ([4]; 250 g ai/ha) | Johnsongrass plant response rating ([4]; 500 g ai/ha) | Morningglory plant response rating ([6]; 62 g ai/ha) | Morningglory plant response rating ([6]; 125 g ai/ha) | Morningglory plant response rating ([6]; 250 g ai/ha) | Morningglory plant response rating ([6]; 500 g ai/ha) | Plant response rating (0 to 100), Windgrass ([8]; 62 g ai/ha) | Plant response rating (0 to 100), Windgrass ([8]; 125 g ai/ha) | Plant response rating, Windgrass ([8]; 250 g ai/ha) | Plant response rating, Windgrass ([8]; 500 g ai/ha) | Plant response rating (0 to 100), Cupgrass, Woolly ([9]; 62 g ai/ha) | Plant response rating (0 to 100), Cupgrass, Woolly ([9]; 125 g ai/ha) | Plant response rating, Cupgrass, Woolly ([9]; 250 g ai/ha) | Plant response rating, Cupgrass, Woolly ([9]; 500 g ai/ha) | Plant response rating (0 to 100), Canarygrass ([10]; 62 g ai/ha) | Plant response rating (0 to 100), Canarygrass ([10]; 125 g ai/ha) | Plant response rating, Canarygrass ([10]; 250 g ai/ha) | Plant response rating, Canarygrass ([10]; 500 g ai/ha) | Plant response rating (0 to 100), Surinam Grass ([11]; 62 g ai/ha) | Plant response rating (0 to 100), Surinam Grass ([11]; 125 g ai/ha) | Plant response rating, Surinam Grass ([11]; 250 g ai/ha) | Plant response rating, Surinam Grass ([11]; 500 g ai/ha) | Plant response rating (0 to 100), Goosegrass ([12]; 62 g ai/ha) | Plant response rating (0 to 100), Goosegrass ([12]; 125 g ai/ha) | Plant response rating, Goosegrass ([12]; 250 g ai/ha) | Plant response rating, Goosegrass ([12]; 500 g ai/ha) | Plant response rating (0 to 100), Deadnettle ([13]; 62 g ai/ha) | Plant response rating (0 to 100), Deadnettle ([13]; 125 g ai/ha) | Plant response rating, Deadnettle ([13]; 250 g ai/ha) | Plant response rating, Deadnettle ([13]; 500 g ai/ha) | Plant response rating (0 to 100), Bermudagrass ([14]; 62 g ai/ha) | Plant response rating (0 to 100), Bermudagrass ([14]; 125 g ai/ha) | Plant response rating, Bermudagrass ([14]; 250 g ai/ha) | Plant response rating, Bermudagrass ([14]; 500 g ai/ha) | Plant response rating (0 to 100), Foxtail, Green ([15]; 62 g ai/ha) | Plant response rating (0 to 100), Foxtail, Green ([15]; 125 g ai/ha) | Plant response rating, Foxtail, Green ([15]; 250 g ai/ha) | Plant response rating (0 to 100), Barley ([17]; 62 g ai/ha) | Plant response rating (0 to 100), Barley ([17]; 125 g ai/ha) | Plant response rating, Barley ([17]; 250 g ai/ha) | Plant response rating, Barley ([17]; 500 g ai/ha) | Plant response rating (0 to 100), Bromegrass, Downy ([18]; 62 g ai/ha) | Plant response rating (0 to 100), Bromegrass, Downy ([18]; 125 g ai/ha) | Plant response rating, Bromegrass, Downy ([18]; 250 g ai/ha) | Foxtail, Giant plant response rating ([7]; 62 g ai/ha) | Foxtail, Giant plant response rating ([7]; 125 g ai/ha) | Foxtail, Giant plant response rating ([7]; 250 g ai/ha) | Foxtail, Giant plant response rating ([7]; 500 g ai/ha)
15: Plant response rating (0 to 100), Cocklebur ([16]; 62 g ai/ha)
90: Plant response rating, Waterhemp_RES1 ([5]; 125 g ai/ha) | Plant response rating, Waterhemp_RES1 ([5]; 250 g ai/ha)
